According to the CheMixHub viscosity set:

Test: xn = mol fraction of the nth substance listed

CC(O)CO (stereo not drawn) + CS(C)=O
viscosity [mPa·s], 100 kPa
Conditions | 293.15 K | 298.15 K | 303.15 K | 308.15 K | 313.15 K | 318.15 K
x1 = 0.0513 | 2.52 | 2.24 | 2.04 | 1.8 | 1.65 | 1.55
x1 = 0.1024 | 2.82 | 2.51 | 2.28 | 1.99 | 1.82 | 1.7
x1 = 0.1534 | 3.19 | 2.82 | 2.55 | 2.21 | 2.01 | 1.87
x1 = 0.2043 | 3.61 | 3.17 | 2.86 | 2.44 | 2.22 | 2.06
x1 = 0.255 | 4.08 | 3.54 | 3.19 | 2.72 | 2.46 | 2.27
x1 = 0.3056 | 4.63 | 4 | 3.58 | 3.02 | 2.72 | –
x1 = 0.356 | 5.31 | 4.56 | 4.03 | 3.38 | 3.04 | –
x1 = 0.4064 | 6.1 | 5.21 | 4.56 | 3.82 | 3.39 | –
x1 = 0.4566 | 7.04 | 5.93 | 5.17 | 4.28 | 3.8 | –
x1 = 0.5066 | 8.19 | 6.88 | 5.94 | 4.84 | 4.25 | –
x1 = 0.5565 | 9.53 | 7.93 | 6.78 | 5.52 | 4.8 | –
x1 = 0.6063 | 11.3 | 9.3 | 7.84 | 6.36 | 5.45 | –
x1 = 0.6556 | 13.5 | 11 | 9.26 | 7.35 | 6.26 | –
x1 = 0.7055 | 16.3 | 13.1 | 10.9 | 8.58 | 7.23 | –
x1 = 0.7549 | 19.9 | 15.8 | 12.8 | 10.1 | 8.38 | –
x1 = 0.8042 | 24.4 | 19 | 15.4 | 12 | 9.8 | –
x1 = 0.8533 | 30.1 | 23.2 | 18.5 | 14.3 | 11.5 | –
x1 = 0.9024 | 37.7 | 28.7 | 22.7 | 17.2 | 13.7 | –
x1 = 0.9512 | 47.5 | 35.5 | 27.6 | 20.7 | 16.2 | –

CC(O)CO (stereo not drawn) + O
Conditions | viscosity [mPa·s]
293.15 K, 101 kPa, x1 = 0.0256 | 1.469
293.15 K, 101 kPa, x1 = 0.0558 | 2.125
293.15 K, 101 kPa, x1 = 0.092 | 3.14
293.15 K, 101 kPa, x1 = 0.1362 | 4.717
293.15 K, 101 kPa, x1 = 0.1913 | 6.665
293.15 K, 101 kPa, x1 = 0.2619 | 9.425
293.15 K, 101 kPa, x1 = 0.3556 | 14.17
293.15 K, 101 kPa, x1 = 0.4862 | 21.99
293.15 K, 101 kPa, x1 = 0.6804 | 35.18
298.15 K, 100 kPa, x1 = 0.2 | 5.452
298.15 K, 100 kPa, x1 = 0.4 | 12.77
298.15 K, 100 kPa, x1 = 0.6 | 21.63
298.15 K, 100 kPa, x1 = 0.8 | 32.85
298.15 K, 101 kPa, x1 = 0.197 | 5.634
298.15 K, 101 kPa, x1 = 0.3086 | 9.397
298.15 K, 101 kPa, x1 = 0.3774 | 12.17
298.15 K, 101 kPa, x1 = 0.4524 | 15.52
298.15 K, 101 kPa, x1 = 0.5109 | 18.22
298.15 K, 101 kPa, x1 = 0.5926 | 22.24
298.15 K, 101 kPa, x1 = 0.6898 | 27.16
298.15 K, 101 kPa, x1 = 0.8043 | 33.02
298.15 K, 101 kPa, x1 = 0.8747 | 36.98
298.15 K, 101 kPa, x1 = 0.9466 | 41.1
298.15 K, 101.3 kPa, x1 = 0.03 | 1.311
298.15 K, 101.3 kPa, x1 = 0.06 | 1.851
298.15 K, 101.3 kPa, x1 = 0.1 | 2.733
298.15 K, 101.3 kPa, x1 = 0.12 | 3.233
298.15 K, 101.3 kPa, x2 = 0.044 | 41.25
303.15 K, 101 kPa, x1 = 0.0101 | 0.902
303.15 K, 101 kPa, x1 = 0.02 | 1.022
303.15 K, 101 kPa, x1 = 0.0256 | 1.133
303.15 K, 101 kPa, x1 = 0.03 | 1.143
303.15 K, 101 kPa, x1 = 0.0399 | 1.282
303.15 K, 101 kPa, x1 = 0.0501 | 1.424
303.15 K, 101 kPa, x1 = 0.0558 | 1.572
303.15 K, 101 kPa, x1 = 0.0598 | 1.568
303.15 K, 101 kPa, x1 = 0.07 | 1.726
303.15 K, 101 kPa, x1 = 0.08 | 1.896
303.15 K, 101 kPa, x1 = 0.0899 | 2.059
303.15 K, 101 kPa, x1 = 0.092 | 2.236
303.15 K, 101 kPa, x1 = 0.1 | 2.246
303.15 K, 101 kPa, x1 = 0.1362 | 3.17
303.15 K, 101 kPa, x1 = 0.1913 | 4.481
303.15 K, 101 kPa, x1 = 0.2619 | 6.027
303.15 K, 101 kPa, x1 = 0.3556 | 8.744
303.15 K, 101 kPa, x1 = 0.4862 | 13.55
303.15 K, 101 kPa, x1 = 0.6804 | 21
303.15 K, 101 kPa, x2 = 0.97 | 1.143
308.15 K, 101 kPa, x1 = 0.0101 | 0.81
308.15 K, 101 kPa, x1 = 0.02 | 0.91
308.15 K, 101 kPa, x1 = 0.0399 | 1.13
308.15 K, 101 kPa, x1 = 0.0501 | 1.249
308.15 K, 101 kPa, x1 = 0.0598 | 1.373
308.15 K, 101 kPa, x1 = 0.07 | 1.499
308.15 K, 101 kPa, x1 = 0.08 | 1.642
308.15 K, 101 kPa, x1 = 0.0899 | 1.775
308.15 K, 101 kPa, x1 = 0.1 | 1.927
313.15 K, 101 kPa, x1 = 0.0101 | 0.732
313.15 K, 101 kPa, x1 = 0.02 | 0.82
313.15 K, 101 kPa, x1 = 0.0256 | 0.9114
313.15 K, 101 kPa, x1 = 0.03 | 0.907
313.15 K, 101 kPa, x1 = 0.0399 | 1.005
313.15 K, 101 kPa, x1 = 0.0501 | 1.105
313.15 K, 101 kPa, x1 = 0.0558 | 1.267
313.15 K, 101 kPa, x1 = 0.0598 | 1.213
313.15 K, 101 kPa, x1 = 0.07 | 1.315
313.15 K, 101 kPa, x1 = 0.08 | 1.437
313.15 K, 101 kPa, x1 = 0.0899 | 1.543
313.15 K, 101 kPa, x1 = 0.092 | 1.703
313.15 K, 101 kPa, x1 = 0.1 | 1.671
313.15 K, 101 kPa, x1 = 0.1362 | 2.278
313.15 K, 101 kPa, x1 = 0.1913 | 2.952
313.15 K, 101 kPa, x1 = 0.2619 | 4.008
313.15 K, 101 kPa, x1 = 0.3556 | 5.698
313.15 K, 101 kPa, x1 = 0.4862 | 8.384
313.15 K, 101 kPa, x1 = 0.6804 | 12.88
313.15 K, 101 kPa, x2 = 0.97 | 0.9218
318.15 K, 101 kPa, x1 = 0.0101 | 0.667
318.15 K, 101 kPa, x1 = 0.02 | 0.743
318.15 K, 101 kPa, x1 = 0.03 | 0.819
318.15 K, 101 kPa, x1 = 0.0399 | 0.904
318.15 K, 101 kPa, x1 = 0.0501 | 0.99
318.15 K, 101 kPa, x1 = 0.0598 | 1.078
318.15 K, 101 kPa, x1 = 0.07 | 1.168
318.15 K, 101 kPa, x1 = 0.08 | 1.268
318.15 K, 101 kPa, x1 = 0.0899 | 1.361
318.15 K, 101 kPa, x1 = 0.1 | 1.466
323.15 K, 100 kPa, x1 = 0.2 | 2.308
323.15 K, 100 kPa, x1 = 0.4 | 4.7
323.15 K, 100 kPa, x1 = 0.6 | 7.261
323.15 K, 100 kPa, x1 = 0.8 | 9.984
323.15 K, 101 kPa, x1 = 0.0101 | 0.611
323.15 K, 101 kPa, x1 = 0.02 | 0.678
323.15 K, 101 kPa, x1 = 0.0256 | 0.7514
323.15 K, 101 kPa, x1 = 0.03 | 0.744
323.15 K, 101 kPa, x1 = 0.0558 | 0.9714
323.15 K, 101 kPa, x1 = 0.092 | 1.282
323.15 K, 101 kPa, x1 = 0.1362 | 1.644
323.15 K, 101 kPa, x1 = 0.1913 | 2.138
323.15 K, 101 kPa, x1 = 0.2619 | 2.813
323.15 K, 101 kPa, x1 = 0.3556 | 3.891
323.15 K, 101 kPa, x1 = 0.4862 | 5.583
323.15 K, 101 kPa, x1 = 0.6804 | 8.332
